We go through five compounds from ChEMBL document CHEMBL4028801, “A multifactorial approach to hepatobiliary transporter assessment enables improved therapeutic compound development” (Toxicol Sci, 2013).

Series [1] in a line: AUC in human at 50 ug, sc BID/TID co-treated with 50 to 500 ug, sc TID of sandostatin LAR measured after 8 hrs. It counts as ADME, organism-based. Further details: dose 50 ug, time < 8 hr, route subcutaneous. As to conditions: in vivo.
The target of series [2] is ATP-binding cassette sub-family C member 2 (Homo sapiens, UniProt Q92887). In words: Inhibition of human MRP2 overexpressed in Sf9 cell membrane vesicles assessed as uptake of [3H]-estradiol-17beta-D-glucuronide in presence of ATP and GSH measured after 20 mins by membrane vesicle transport assay.
For series [3], the target named is T1, ATP-binding cassette sub-family C member 4 (Homo sapiens, UniProt O15439).
T1 sequence (O15439 whole entry): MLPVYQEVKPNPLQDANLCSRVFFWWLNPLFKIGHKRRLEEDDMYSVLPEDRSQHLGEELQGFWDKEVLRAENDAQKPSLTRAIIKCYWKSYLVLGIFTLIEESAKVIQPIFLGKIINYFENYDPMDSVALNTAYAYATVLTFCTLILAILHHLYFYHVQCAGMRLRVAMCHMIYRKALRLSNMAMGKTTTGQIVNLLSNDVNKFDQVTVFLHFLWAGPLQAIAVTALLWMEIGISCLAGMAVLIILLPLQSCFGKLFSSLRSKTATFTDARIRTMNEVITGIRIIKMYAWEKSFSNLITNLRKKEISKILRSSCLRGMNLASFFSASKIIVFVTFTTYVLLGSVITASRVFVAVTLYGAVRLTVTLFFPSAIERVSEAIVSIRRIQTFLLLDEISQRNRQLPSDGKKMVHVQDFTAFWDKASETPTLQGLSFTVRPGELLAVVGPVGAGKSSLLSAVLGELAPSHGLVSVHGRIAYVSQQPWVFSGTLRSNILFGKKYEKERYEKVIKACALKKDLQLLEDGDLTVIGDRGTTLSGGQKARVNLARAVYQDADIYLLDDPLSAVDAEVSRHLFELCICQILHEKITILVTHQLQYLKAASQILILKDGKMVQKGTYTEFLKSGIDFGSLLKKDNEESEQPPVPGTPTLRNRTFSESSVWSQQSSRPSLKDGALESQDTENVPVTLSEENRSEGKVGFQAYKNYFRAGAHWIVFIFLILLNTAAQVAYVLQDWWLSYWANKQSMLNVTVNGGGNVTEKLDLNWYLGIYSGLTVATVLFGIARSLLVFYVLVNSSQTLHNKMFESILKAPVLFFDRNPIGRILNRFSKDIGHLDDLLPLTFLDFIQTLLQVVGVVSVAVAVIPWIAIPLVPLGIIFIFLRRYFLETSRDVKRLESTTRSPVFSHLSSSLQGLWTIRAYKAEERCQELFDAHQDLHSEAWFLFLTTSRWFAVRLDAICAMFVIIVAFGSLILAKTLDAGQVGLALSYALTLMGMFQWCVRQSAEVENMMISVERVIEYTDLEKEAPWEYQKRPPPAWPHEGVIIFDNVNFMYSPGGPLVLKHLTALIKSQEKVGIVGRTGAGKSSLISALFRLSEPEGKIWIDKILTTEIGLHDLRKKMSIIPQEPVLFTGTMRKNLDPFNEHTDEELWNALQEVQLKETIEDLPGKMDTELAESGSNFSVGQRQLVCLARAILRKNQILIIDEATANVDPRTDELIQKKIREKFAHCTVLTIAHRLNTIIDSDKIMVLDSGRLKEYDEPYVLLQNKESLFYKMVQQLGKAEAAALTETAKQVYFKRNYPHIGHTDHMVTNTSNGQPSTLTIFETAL
In words: Inhibition of human MRP4 overexpressed in Sf9 cell membrane vesicles assessed as uptake of [3H]-estradiol-17beta-D-glucuronide in presence of ATP and GSH measured after 20 mins by membrane vesicle transport assay. It counts as ADME, cell-based.

Another series has as its target Bile salt export pump (Homo sapiens, UniProt O95342). In words: Inhibition of human BSEP overexpressed in Sf9 cell membrane vesicles assessed as uptake of [3H]-taurocholate in presence of ATP measured after 15 to 20 mins by membrane vesicle transport assay. It counts as ADME, cell-based.
In series [4] the target is ATP-binding cassette sub-family C member 3 (Homo sapiens, UniProt O15438). In words: Inhibition of human MRP3 overexpressed in Sf9 insect cell membrane vesicles assessed as uptake of [3H]-estradiol-17beta-D-glucuronide in presence of ATP and GSH measured after 10 mins by membrane vesicle transport assay. It counts as ADME, cell-based.
Series [5] can be described thus: Ratio of drug concentration at steady state in human at 50 ug, sc BID/TID co-treated with 50 to 500 ug, sc TID of sandostatin LAR measured after 8 hrs to IC50 for human BSEP overexpressed in Sf9 insect cells. It counts as ADME, organism-based. As to conditions: in vivo.
A short description of series [6]: Drug concentration at steady state in human at 50 ug, sc BID/TID co-treated with 50 to 500 ug, sc TID of sandostatin LAR measured after 8 hrs. As to conditions: in vivo, read-out: Css. Format: ADME, organism-based.
Series [7] in a line: AUC in human at 600 mg, po BID after 12 hrs. As to conditions: in vivo. Format: ADME, organism-based. Further details: dose 600 mg, time < 12 hr, route oral.
The nature of series [8]: Drug concentration at steady state in human at 600 mg, po BID after 12 hrs. Format: ADME, organism-based. Particulars: in vivo, read-out: Css.
Series [9] is described as follows: Drug concentration at steady state in human at 200 mg, po TID after 8 hrs. Format: ADME, organism-based. Particulars: in vivo, read-out: Css.
Series [10] can be described thus: AUC in human at 200 mg, po TID after 8 hrs. It counts as ADME, organism-based. Also noted: time < 8 hr, dose 200 mg, route oral. As to conditions: in vivo.
Series [11] can be described thus: Ratio of drug concentration at steady state in human at 200 mg, po TID after 8 hrs to IC50 for human BSEP overexpressed in Sf9 insect cells. It counts as ADME, organism-based. Particulars: in vivo.
A short description of series [12]: AUC in human at 15 to 60 mg, po QD after 24 hrs. It counts as ADME, organism-based. Particulars: in vivo.
Series [13] is described as follows: Drug concentration at steady state in human at 15 to 60 mg, po QD after 24 hrs. Format: ADME, organism-based. Particulars: in vivo, read-out: Css.
A short description of series [14]: Ratio of drug concentration at steady state in human at 15 to 60 mg, po QD after 24 hrs to IC50 for human BSEP overexpressed in Sf9 insect cells. Format: ADME, organism-based. As to conditions: in vivo.
Series [15] in a line: Ratio of drug concentration at steady state in human at 15 to 60 mg, po QD after 24 hrs to IC50 for human MRP4 overexpressed in Sf9 insect cells. It counts as ADME, organism-based. Particulars: in vivo.
Series [16] is described as follows: Ratio of drug concentration at steady state in human at 200 to 800 mg, po QD after 24 hrs to IC50 for human MRP4 overexpressed in Sf9 insect cells. Format: ADME, organism-based. Particulars: in vivo.
Series [17] is described as follows: Ratio of drug concentration at steady state in human at 200 to 800 mg, po QD after 24 hrs to IC50 for human BSEP overexpressed in Sf9 insect cells. It counts as ADME, organism-based. As to conditions: in vivo.
Series [18] can be described thus: AUC in human at 200 to 800 mg, po QD after 24 hrs. Format: ADME, organism-based. Particulars: in vivo.
The nature of series [19]: Drug concentration at steady state in human at 200 to 800 mg, po QD after 24 hrs. It counts as ADME, organism-based. Particulars: in vivo, read-out: Css.

The structures appear in SMILES notation.

ATP-binding cassette sub-family C member 3, sequence (O15438 whole entry): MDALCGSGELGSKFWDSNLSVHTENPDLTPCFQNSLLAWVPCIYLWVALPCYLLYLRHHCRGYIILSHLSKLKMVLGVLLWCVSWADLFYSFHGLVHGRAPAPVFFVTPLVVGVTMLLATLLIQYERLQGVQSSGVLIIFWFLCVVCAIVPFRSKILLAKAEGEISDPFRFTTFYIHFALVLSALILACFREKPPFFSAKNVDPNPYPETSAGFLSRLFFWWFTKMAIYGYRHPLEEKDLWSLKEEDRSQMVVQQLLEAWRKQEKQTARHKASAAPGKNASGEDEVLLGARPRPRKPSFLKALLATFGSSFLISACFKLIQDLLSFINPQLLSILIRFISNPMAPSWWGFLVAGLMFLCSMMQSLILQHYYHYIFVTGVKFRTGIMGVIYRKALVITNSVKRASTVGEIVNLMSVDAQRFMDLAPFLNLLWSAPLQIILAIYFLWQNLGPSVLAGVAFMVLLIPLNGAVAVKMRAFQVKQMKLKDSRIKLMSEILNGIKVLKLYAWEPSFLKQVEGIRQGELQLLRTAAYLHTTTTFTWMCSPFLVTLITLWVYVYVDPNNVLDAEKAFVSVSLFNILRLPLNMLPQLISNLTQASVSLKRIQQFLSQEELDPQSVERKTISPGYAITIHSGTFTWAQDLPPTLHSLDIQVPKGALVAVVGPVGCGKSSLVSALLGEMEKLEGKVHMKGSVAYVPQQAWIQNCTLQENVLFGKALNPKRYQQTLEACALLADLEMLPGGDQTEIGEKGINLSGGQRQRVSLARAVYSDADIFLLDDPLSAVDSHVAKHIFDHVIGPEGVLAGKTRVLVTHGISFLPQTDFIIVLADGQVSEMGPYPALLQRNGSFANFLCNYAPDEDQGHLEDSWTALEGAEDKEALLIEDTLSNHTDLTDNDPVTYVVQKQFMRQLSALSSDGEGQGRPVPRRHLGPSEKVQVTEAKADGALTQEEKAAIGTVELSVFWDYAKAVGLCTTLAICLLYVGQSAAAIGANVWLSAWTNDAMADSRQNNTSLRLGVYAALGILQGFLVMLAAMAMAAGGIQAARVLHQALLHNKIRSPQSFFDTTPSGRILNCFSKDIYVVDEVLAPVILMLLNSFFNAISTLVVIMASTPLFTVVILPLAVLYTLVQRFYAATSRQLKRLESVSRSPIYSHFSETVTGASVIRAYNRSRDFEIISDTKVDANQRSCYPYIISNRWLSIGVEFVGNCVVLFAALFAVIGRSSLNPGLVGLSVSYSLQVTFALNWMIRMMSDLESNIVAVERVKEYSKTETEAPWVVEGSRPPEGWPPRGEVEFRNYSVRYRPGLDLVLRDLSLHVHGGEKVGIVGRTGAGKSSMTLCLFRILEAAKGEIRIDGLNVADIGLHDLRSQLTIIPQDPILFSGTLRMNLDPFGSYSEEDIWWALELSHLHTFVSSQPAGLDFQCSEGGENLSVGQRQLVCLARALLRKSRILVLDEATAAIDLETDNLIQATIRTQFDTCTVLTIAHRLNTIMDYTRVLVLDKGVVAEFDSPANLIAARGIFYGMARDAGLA
ATP-binding cassette sub-family C member 2, sequence (Q92887 whole entry): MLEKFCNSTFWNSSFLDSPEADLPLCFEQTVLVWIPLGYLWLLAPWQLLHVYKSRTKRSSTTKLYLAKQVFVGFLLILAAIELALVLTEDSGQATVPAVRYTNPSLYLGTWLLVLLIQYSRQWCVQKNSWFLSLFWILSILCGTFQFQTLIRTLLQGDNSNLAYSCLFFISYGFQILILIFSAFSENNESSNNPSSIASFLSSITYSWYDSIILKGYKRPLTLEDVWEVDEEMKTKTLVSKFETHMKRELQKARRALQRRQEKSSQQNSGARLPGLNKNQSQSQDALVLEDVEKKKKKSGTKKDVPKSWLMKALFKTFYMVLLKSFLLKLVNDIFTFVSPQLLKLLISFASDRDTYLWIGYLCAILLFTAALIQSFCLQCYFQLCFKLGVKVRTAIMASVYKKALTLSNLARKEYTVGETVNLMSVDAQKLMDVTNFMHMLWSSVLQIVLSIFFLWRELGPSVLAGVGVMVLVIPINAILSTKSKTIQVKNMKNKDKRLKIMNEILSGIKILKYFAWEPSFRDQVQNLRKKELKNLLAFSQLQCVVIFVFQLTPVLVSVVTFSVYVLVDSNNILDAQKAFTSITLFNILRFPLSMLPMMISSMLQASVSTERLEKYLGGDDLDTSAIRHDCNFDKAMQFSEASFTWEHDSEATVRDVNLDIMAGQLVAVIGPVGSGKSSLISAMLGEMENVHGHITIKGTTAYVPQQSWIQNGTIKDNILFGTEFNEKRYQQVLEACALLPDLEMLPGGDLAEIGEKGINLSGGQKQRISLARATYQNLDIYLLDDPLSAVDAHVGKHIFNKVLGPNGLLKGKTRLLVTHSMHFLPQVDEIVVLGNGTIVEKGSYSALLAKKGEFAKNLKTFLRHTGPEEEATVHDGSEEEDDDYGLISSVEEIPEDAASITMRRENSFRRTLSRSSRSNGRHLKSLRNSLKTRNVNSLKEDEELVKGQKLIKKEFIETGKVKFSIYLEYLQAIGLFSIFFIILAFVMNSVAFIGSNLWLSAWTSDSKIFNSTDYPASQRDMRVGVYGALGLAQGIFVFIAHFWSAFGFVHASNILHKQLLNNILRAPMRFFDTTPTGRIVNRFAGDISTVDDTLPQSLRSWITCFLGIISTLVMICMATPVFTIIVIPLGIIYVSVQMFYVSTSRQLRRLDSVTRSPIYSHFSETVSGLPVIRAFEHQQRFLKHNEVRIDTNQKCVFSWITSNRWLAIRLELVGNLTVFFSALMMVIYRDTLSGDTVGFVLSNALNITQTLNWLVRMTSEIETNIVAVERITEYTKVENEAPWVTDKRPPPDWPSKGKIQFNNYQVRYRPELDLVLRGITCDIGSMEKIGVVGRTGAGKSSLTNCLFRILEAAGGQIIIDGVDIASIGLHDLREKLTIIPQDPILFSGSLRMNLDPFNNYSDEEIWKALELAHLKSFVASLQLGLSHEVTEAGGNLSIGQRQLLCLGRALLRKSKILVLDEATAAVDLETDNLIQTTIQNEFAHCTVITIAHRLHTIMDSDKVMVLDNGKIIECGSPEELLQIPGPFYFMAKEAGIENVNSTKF
Bile salt export pump, sequence (O95342 whole entry): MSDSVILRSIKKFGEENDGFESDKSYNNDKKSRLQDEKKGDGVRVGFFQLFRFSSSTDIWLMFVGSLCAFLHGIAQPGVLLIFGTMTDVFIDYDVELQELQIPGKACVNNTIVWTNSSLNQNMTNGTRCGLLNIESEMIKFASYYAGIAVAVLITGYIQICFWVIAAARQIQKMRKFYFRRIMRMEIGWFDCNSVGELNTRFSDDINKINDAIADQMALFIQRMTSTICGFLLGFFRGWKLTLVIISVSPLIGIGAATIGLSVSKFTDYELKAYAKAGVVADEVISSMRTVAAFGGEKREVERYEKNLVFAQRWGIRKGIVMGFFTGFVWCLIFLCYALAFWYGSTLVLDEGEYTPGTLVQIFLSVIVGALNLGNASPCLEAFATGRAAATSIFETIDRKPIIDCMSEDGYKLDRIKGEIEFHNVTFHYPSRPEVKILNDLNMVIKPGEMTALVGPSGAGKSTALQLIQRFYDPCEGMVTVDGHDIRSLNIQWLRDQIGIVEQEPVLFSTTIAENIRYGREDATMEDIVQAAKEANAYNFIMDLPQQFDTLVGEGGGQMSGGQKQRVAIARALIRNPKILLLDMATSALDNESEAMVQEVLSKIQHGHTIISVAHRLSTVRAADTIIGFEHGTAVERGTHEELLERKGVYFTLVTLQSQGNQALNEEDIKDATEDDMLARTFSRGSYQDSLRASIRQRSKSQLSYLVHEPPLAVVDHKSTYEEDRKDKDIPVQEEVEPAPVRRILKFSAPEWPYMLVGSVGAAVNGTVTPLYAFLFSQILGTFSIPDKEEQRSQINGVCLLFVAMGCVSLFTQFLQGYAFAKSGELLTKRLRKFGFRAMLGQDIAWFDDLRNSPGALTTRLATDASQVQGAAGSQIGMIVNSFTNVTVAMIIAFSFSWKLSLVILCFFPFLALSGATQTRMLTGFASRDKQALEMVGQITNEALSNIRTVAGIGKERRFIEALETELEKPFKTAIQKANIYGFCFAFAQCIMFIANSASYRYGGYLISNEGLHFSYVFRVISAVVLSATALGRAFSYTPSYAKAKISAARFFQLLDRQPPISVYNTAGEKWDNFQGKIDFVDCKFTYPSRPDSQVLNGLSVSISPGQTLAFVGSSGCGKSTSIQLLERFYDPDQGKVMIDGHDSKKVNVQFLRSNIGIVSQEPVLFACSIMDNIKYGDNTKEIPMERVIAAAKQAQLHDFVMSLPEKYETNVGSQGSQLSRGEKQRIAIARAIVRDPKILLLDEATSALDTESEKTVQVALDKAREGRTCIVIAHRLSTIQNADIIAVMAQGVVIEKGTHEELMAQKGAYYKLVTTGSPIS

Turning to `CC(=O)O.C[C@@H](O)[C@@H]1NC(=O)[C@H](CCCCN)NC(=O)[C@@H](Cc2c[nH]c3ccccc23)NC(=O)[C@H](Cc2ccccc2)NC(=O)[C@@H](NC(=O)[C@H](N)Cc2ccccc2)CSSC[C@@H](C(=O)N[C@H](CO)[C@@H](C)O)NC1=O` [OCTREOTIDE ACETATE], the AUC at 8 h in series [1] was 42.2 µM·h. Further, the half-inhibitory concentration (IC50) in series [2] was more than 133 µM; in [3], more than 133 µM; at Bile salt export pump it was 9.34 µM; in series [4], more than 133 µM. Further, the Ratio in [5] amounted to 0.565. The concentration at 8 h in [6] worked out at 5.28 µM.
Turning to `CC(C)c1nc(CN(C)C(=O)N[C@H](C(=O)N[C@@H](Cc2ccccc2)C[C@H](O)[C@H](Cc2ccccc2)NC(=O)OCc2cncs2)C(C)C)cs1` [RITONAVIR], the area under the curve (AUC) at 12 h in [7] was found to be 413 µM·h. Further, in [8], the concentration at 12 h is 34.4 µM.
As to `CC[C@@H]([C@H](C)O)n1ncn(-c2ccc(N3CCN(c4ccc(OC[C@@H]5CO[C@@](Cn6cncn6)(c6ccc(F)cc6F)C5)cc4)CC3)cc2)c1=O` [POSACONAZOLE], the IC50 in [2] was more than 133 µM; in series [3], more than 133 µM; on Bile salt export pump, 8.1 µM; in [4] it was more than 133 µM. Also, the concentration at 8 h in [9] stood at 4.41 µM. The compound also had an area under the curve (AUC) at 8 h in series [10] of 35.2 µM·h. Also, the Ratio in series [11] amounted to 0.544.
For the compound `CCc1ccc(CCOc2ccc(CC3SC(=O)NC3=O)cc2)nc1` (stereo not given) [PIOGLITAZONE], the AUC at 24 h in series [12] was determined as 22.4 µM·h. Also, the concentration at 24 h in [13] worked out at 0.935 µM. The figures for the concentration for half-maximal inhibition (IC50) in [3] and in [4] were 49.5 µM and more than 133 µM, respectively. Besides, the Ratio came out at 2.338 in series [14] and 0.019 in series [15].
Regarding `Cc1ccc(Nc2nccc(N(C)c3ccc4c(C)n(C)nc4c3)n2)cc1S(N)(=O)=O` [PAZOPANIB], the IC50 in series [2] was more than 133 µM; in [3] it was 8.1 µM; on Bile salt export pump, 10.3 µM; in series [4], more than 133 µM. Besides, the Ratio in [16] is 12.192; in series [17], 9.588. In addition, in [18], the AUC at 24 h is 2370 µM·h. Moreover, the concentration at 24 h in [19] stood at 98.8 µM.
